Columns and labels:
[1] = target: T1, Sigma non-opioid intracellular receptor 1 (Homo sapiens, UniProt Q99720); assay: Binding affinity to sigma 1 receptor by radioligand displacement assay
[2] = Binding affinity to sigma 2 receptor by radioligand displacement assay
[3] = Drug uptake in cerebellum of baboon brain at 100 MBq, iv measured within 5 mins by microPET imaging; format: ADME, organism-based; conditions: papio hamadryas, in vivo
[4] = Drug uptake in right striatum of baboon brain at 100 MBq, iv administered 5 mins after haloperidol challenge measured within 3 mins by microPET imaging; format: ADME, organism-based; conditions: papio hamadryas, in vivo
[5] = Drug uptake in left striatum of baboon brain at 100 MBq, iv administered 5 mins after haloperidol challenge measured after 60 mins by microPET imaging; format: ADME, organism-based; conditions: papio hamadryas, in vivo, 1 h
[6] = Drug uptake in left striatum of baboon brain at 100 MBq, iv measured after 60 mins by microPET imaging; format: ADME, organism-based; conditions: papio hamadryas, in vivo, 1 h
[7] = Drug uptake in cortex of baboon brain at 100 MBq, iv administered 5 mins after haloperidol challenge measured after 60 mins by microPET imaging; format: ADME, organism-based; conditions: papio hamadryas, in vivo, 1 h
[8] = Drug uptake in right striatum of baboon brain at 100 MBq, iv administered 5 mins after haloperidol challenge measured after 60 mins by microPET imaging; format: ADME, organism-based; conditions: papio hamadryas, in vivo, 1 h
[9] = Drug uptake in thalamus of baboon brain at 100 MBq, iv measured after 60 mins by microPET imaging; format: ADME, organism-based; conditions: papio hamadryas, in vivo, 1 h
[10] = Drug uptake in right striatum of baboon brain at 100 MBq, iv measured after 60 mins by microPET imaging; format: ADME, organism-based; conditions: papio hamadryas, in vivo, 1 h
[11] = Drug uptake in left striatum of baboon brain at 100 MBq, iv administered 5 mins after haloperidol challenge measured within 5 mins by microPET imaging; format: ADME, organism-based; conditions: papio hamadryas, in vivo
[12] = Drug uptake in thalamus of baboon brain at 100 MBq, iv administered 5 mins after haloperidol challenge measured within 3 mins by microPET imaging; format: ADME, organism-based; conditions: papio hamadryas, in vivo
[13] = Drug uptake in left striatum of baboon brain at 100 MBq, iv measured within 5 mins by microPET imaging; format: ADME, organism-based; conditions: papio hamadryas, in vivo
[14] = Drug uptake in cerebellum of baboon brain at 100 MBq, iv administered 5 mins after haloperidol challenge measured within 3 mins by microPET imaging; format: ADME, organism-based; conditions: papio hamadryas, in vivo
[15] = Drug uptake in right striatum of baboon brain at 100 MBq, iv administered 5 mins after haloperidol challenge measured within 5 mins by microPET imaging; format: ADME, organism-based; conditions: papio hamadryas, in vivo
[16] = Drug uptake in cortex of baboon brain at 100 MBq, iv measured within 5 mins by microPET imaging; format: ADME, organism-based; conditions: papio hamadryas, in vivo
[17] = Drug uptake in cortex of baboon brain at 100 MBq, iv measured after 60 mins by microPET imaging; format: ADME, organism-based; conditions: papio hamadryas, in vivo, 1 h
[18] = Drug uptake in thalamus of baboon brain at 100 MBq, iv administered 5 mins after haloperidol challenge measured within 5 mins by microPET imaging; format: ADME, organism-based; conditions: papio hamadryas, in vivo
[19] = Drug uptake in cortex of baboon brain at 100 MBq, iv administered 5 mins after haloperidol challenge measured within 3 mins by microPET imaging; format: ADME, organism-based; conditions: papio hamadryas, in vivo
[20] = Drug uptake in right striatum of baboon brain at 100 MBq, iv measured within 5 mins by microPET imaging; format: ADME, organism-based; conditions: papio hamadryas, in vivo
[21] = Drug uptake in thalamus of baboon brain at 100 MBq, iv measured within 5 mins by microPET imaging; format: ADME, organism-based; conditions: papio hamadryas, in vivo
[22] = Drug uptake in thalamus of baboon brain at 100 MBq, iv administered 5 mins after haloperidol challenge measured after 60 mins by microPET imaging; format: ADME, organism-based; conditions: papio hamadryas, in vivo, 1 h
[23] = Drug uptake in cortex of baboon brain at 100 MBq, iv administered 5 mins after haloperidol challenge measured within 5 mins by microPET imaging; format: ADME, organism-based; conditions: papio hamadryas, in vivo
[24] = Drug uptake in cerebellum of baboon brain at 100 MBq, iv administered 5 mins after haloperidol challenge measured after 60 mins by microPET imaging; format: ADME, organism-based; conditions: papio hamadryas, in vivo, 1 h
[25] = Drug uptake in left striatum of baboon brain at 100 MBq, iv administered 5 mins after haloperidol challenge measured within 3 mins by microPET imaging; format: ADME, organism-based; conditions: papio hamadryas, in vivo
[26] = Drug uptake in cerebellum of baboon brain at 100 MBq, iv administered 5 mins after haloperidol challenge measured within 5 mins by microPET imaging; format: ADME, organism-based; conditions: papio hamadryas, in vivo
[27] = Drug uptake in cerebellum of baboon brain at 100 MBq, iv measured after 60 mins by microPET imaging; format: ADME, organism-based; conditions: papio hamadryas, in vivo, 1 h
Rhesus monkey [28] = assay: Inhibition of sigma 1 receptor in conscious monkey brain at 220 to 802 MBq, iv; format: functional, organism-based; conditions: Macaca mulatta
Rhesus monkey [29] = assay: Inhibition of sigma 2 receptor in conscious monkey brain at 220 to 802 MBq, iv; format: functional, organism-based; conditions: Macaca mulatta
[30] = target: T1, Sigma non-opioid intracellular receptor 1; assay: Binding affinity to sigma 1 receptor
[31] = Binding affinity to sigma 2 receptor
[32] = target: Sigma non-opioid intracellular receptor 1 (Cavia porcellus, UniProt Q60492); assay: Binding affinity to sigma 1 receptor in guinea pig brain membrane; format: cell membranes
[33] = Binding affinity to sigma 2 receptor in guinea pig brain membrane; format: cell membranes, Cavia porcellus

T1 sequence (Q99720 whole entry): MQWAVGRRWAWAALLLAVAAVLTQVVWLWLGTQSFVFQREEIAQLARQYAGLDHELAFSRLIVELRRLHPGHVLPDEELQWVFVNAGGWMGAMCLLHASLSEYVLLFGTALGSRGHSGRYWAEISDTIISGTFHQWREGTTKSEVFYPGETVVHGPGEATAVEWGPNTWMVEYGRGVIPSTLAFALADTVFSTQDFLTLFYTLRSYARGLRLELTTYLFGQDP
Sequence of Sigma non-opioid intracellular receptor 1 (Cavia porcellus, UniProt Q60492) (Q60492 whole entry): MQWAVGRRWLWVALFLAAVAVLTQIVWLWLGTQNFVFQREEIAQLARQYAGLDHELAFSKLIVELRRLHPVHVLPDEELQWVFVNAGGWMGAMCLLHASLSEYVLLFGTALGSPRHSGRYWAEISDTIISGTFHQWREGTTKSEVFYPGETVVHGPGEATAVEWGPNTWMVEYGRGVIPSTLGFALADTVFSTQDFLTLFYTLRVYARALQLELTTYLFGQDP

FCCC1OC2(CCN(Cc3ccccc3)CC2)c2ccccc21 (stereo not drawn)
785 nM: Ki [2]
0.59 nM: Ki [1]

[18F]CCOc1ccc(CN2CCN(Cc3cc4ccccc4o3)CC2)cc1
Active: Drug uptake [3] | Drug uptake [4] | Drug uptake [6] | Drug uptake [9] | Drug uptake [10] | Drug uptake [12] | Drug uptake [13] | Drug uptake [14] | Drug uptake [16] | Drug uptake [17] | Drug uptake [19] | Drug uptake [20] | Drug uptake [21] | Drug uptake [25] | Drug uptake [27]
Not Active: Drug uptake [5] | Drug uptake [7] | Drug uptake [8] | Drug uptake [11] | Drug uptake [15] | Drug uptake [18] | Drug uptake [22] | Drug uptake [23] | Drug uptake [24] | Drug uptake [26]

COc1cc(CCN2CCN(CCCc3ccc(F)cc3)CC2)ccc1OCCF
3.1 nM: IC50 (Rhesus monkey [28])
6.8 nM: IC50 (Rhesus monkey [29])

N#Cc1ccc(OCC2CCN(CCCF)CC2)cc1
144 nM: Ki [31]
4.3 nM: Ki [30]

O=C(NC1CCN(Cc2ccccc2)CC1)c1ccccc1F
406 nM: Ki [33]
3.39 nM: Ki [32]
